Columns and labels:
Assay type in all cases: in vivo
[1] = test system: Housefly [Musca domestica]; experiment: Housefly insecticidal test (HF); details: per 25 female houseflies, 48 hours
[2] = test system: Cabbage Looper [Trichoplusia ni (Hubner)]; experiment: Cabbage looper test (CL); details: second-instar larvae, 3-5 days, percent in solution
[3] = test system: Tobacco Budworm [Heliothis virescens (Fabricius)] eggs; experiment: Tobacco budworm egg test (TBW-E); details: percent in solution
[4] = test system: Maize weevil [Sitophilus Zeamais (Motschulsky)]; experiment: Maize weevil test (MW); details: adult weevils, treated corn seeds, 48 hours, percent in solution
Description: The compounds in Tables 1 and 2 above were tested for insecticidal activity using the following testing procedures. LC50 values, based on the results of these tests and calculated according to dosage-mortality curves, are expressed in Table 3.
Maize weevil [Sitophilus Zeamais (Motschulsky)]
Test compounds were diluted in a 50:50 acetone:water solution. Four corn seeds [Zea mays (L.)] which had been immersed in test solutions for 2-3 seconds and allowed to dry were placed in containers together with 10 adult weevils. The containers were covered and kept at a temperature of about 25° C. Mortality was recorded after 48 hours. Test concentrations ranged from 0.01% down to that at which 50% mortalilty occurred. The LC50 values are expressed below in Table 3 under the heading "MW" in terms of percent of the test compound in solution.

C=C(C)C(=Nc1ccc(F)c(Cl)c1)OCc1ccc(F)c(Oc2ccccc2)c1 [Compound 416]
LC50 HF [1]: < 100 µg | LC50 CL [2]: 0.00027% | LC50 TBW E [3]: 0.018% | LC50 MW [4]: > 0.01%

CC(C)C(=Nc1ccc([N+](=O)[O-])c(C(F)(F)F)c1)OCc1cccc(Oc2ccccc2)c1 [Compound 307]
LC50 HF [1]: > 100 µg | LC50 CL [2]: 0.002% | LC50 TBW E [3]: 0.08% | LC50 MW [4]: > 0.01%

CC(C)C(=Nc1ccc(F)c(F)c1)OCc1cccc(Oc2ccc(Cl)cc2)n1 [Compound 559]
LC50 HF [1]: < 100 µg | LC50 CL [2]: 0.00027% | LC50 TBW E [3]: 0.017% | LC50 MW [4]: > 0.01%

CC(C)C(=Nc1ccc(OC(F)(F)F)cc1)OCc1cccc(Oc2ccccc2)n1 [Compound 550]
LC50 HF [1]: < 100 µg | LC50 CL [2]: 0.00034% | LC50 TBW E [3]: > 0.1% | LC50 MW [4]: > 0.01%

CC(Br)C(=Nc1ccc2c(c1)OCO2)OCc1cccc(Oc2ccccc2)c1 (stereo not drawn) [Compound 306]
LC50 HF [1]: > 100 µg | LC50 CL [2]: 0.005% | LC50 TBW E [3]: 0.1% | LC50 MW [4]: > 0.01%

CC(C)C(=Nc1ccc(C(F)(F)F)cc1Cl)OCc1cccc(Oc2ccc(F)cc2)c1 [Compound 427]
LC50 HF [1]: > 100 µg | LC50 CL [2]: < 0.1% | LC50 TBW E [3]: > 0.1% | LC50 MW [4]: > 0.01%

Fc1ccc(Oc2cccc(COC(=Nc3cccc(C(F)(F)F)c3)C3CC3)c2)cc1 [Compound 294]
LC50 HF [1]: > 100 µg | LC50 CL [2]: 0.017% | LC50 TBW E [3]: > 0.1% | LC50 MW [4]: > 0.01%

CC(C)C(=Nc1ccc(C#N)cc1)OCc1ccc(F)c(Oc2ccc(F)cc2)c1 [Compound 394]
LC50 HF [1]: < 100 µg | LC50 CL [2]: 0.00025% | LC50 TBW E [3]: 0.05% | LC50 MW [4]: > 0.01%

Fc1ccc(Oc2cccc(COC(=Nc3ccc(F)c(Cl)c3)C3CC3)c2)cc1 [Compound 116]
LC50 HF [1]: 15 µg | LC50 CL [2]: 0.00025% | LC50 TBW E [3]: 0.05% | LC50 MW [4]: > 0.01%

CC(C)C(=Nc1ccc(C(C)(C)C)cc1)OCc1ccc(F)c(Oc2ccc(Cl)cc2)c1 [Compound 301]
LC50 HF [1]: > 100 µg | LC50 CL [2]: 0.008% | LC50 TBW E [3]: > 0.1% | LC50 MW [4]: > 0.01%

C=C(C)C(=Nc1ccc(C(F)(F)F)cc1)OCc1cccc(Oc2ccc(F)cc2)c1 [Compound 442]
LC50 HF [1]: < 100 µg | LC50 CL [2]: 0.0007% | LC50 TBW E [3]: 0.035% | LC50 MW [4]: > 0.01%

CC(C)C(=Nc1ccc(F)c(Br)c1)OCc1cccc(Oc2ccccc2)n1 [Compound 558]
LC50 HF [1]: < 100 µg | LC50 CL [2]: 0.00045% | LC50 TBW E [3]: > 0.1% | LC50 MW [4]: > 0.01%

CCC(=Nc1cccc(Cl)c1Cl)OCc1cccc(Oc2ccccc2)c1 [Compound 28]
LC50 HF [1]: > 100 µg | LC50 CL [2]: 0.009% | LC50 TBW E [3]: > 0.1%

CC(C)C(=Nc1cccc(C(F)(F)F)c1)OCc1ccc(OCc2ccc(F)cc2)cc1 [Compound 488]
LC50 HF [1]: > 100 µg | LC50 CL [2]: 0.025% | LC50 TBW E [3]: > 0.1%

CC(C)C(=Nc1cccc(Cl)c1)OCc1cccc(Oc2ccc(Br)cc2)c1 [Compound 260]
LC50 HF [1]: 22 µg | LC50 CL [2]: 0.00075% | LC50 TBW E [3]: > 0.1%

CC(C)C(=Nc1ccc2c(c1)OCO2)OCc1c(F)c(F)c(F)c(F)c1F [Compound 464]
LC50 HF [1]: > 100 µg | LC50 CL [2]: 0.08% | LC50 TBW E [3]: > 0.1%

COc1cc(N=C(OCc2cccc(Oc3ccccc3)c2)C(C)C)cc(OC)c1OC [Compound 248]
LC50 HF [1]: 40 µg | LC50 CL [2]: 0.02% | LC50 TBW E [3]: > 0.1%

CCC(CC)C(=Nc1ccc(Cl)cc1)OCc1cccc(Oc2ccc(F)cc2)c1 [Compound 290]
LC50 HF [1]: > 100 µg | LC50 CL [2]: 0.017% | LC50 TBW E [3]: > 0.1%

CC(C)C(=Nc1ccc(F)c(Cl)c1)OCc1ccc(F)c(Br)c1 [Compound 473]
LC50 HF [1]: > 100 µg | LC50 CL [2]: 0.025% | LC50 TBW E [3]: > 0.1%

CC(C)C(=Nc1ccc2c(c1)CCO2)OCc1cccc(Oc2ccccc2)c1 [Compound 243]
LC50 HF [1]: 9 µg | LC50 CL [2]: 0.005% | LC50 TBW E [3]: > 0.1%

Cc1ccc(Oc2cccc(COC(=Nc3cccc(C(F)(F)F)c3)C(C)C)n2)cc1 [Compound 495]
LC50 HF [1]: > 100 µg | LC50 CL [2]: 0.012% | LC50 TBW E [3]: 0.1%

CC(C)C(=Nc1ccc(C#N)c(F)c1)OCc1cccc(Oc2ccc(F)cc2)c1 [Compound 222]
LC50 HF [1]: 32 µg | LC50 CL [2]: 0.0015% | LC50 TBW E [3]: > 0.1%

CC(C)C(=Nc1c(F)c(F)c(F)c(F)c1F)OCc1cccc(Oc2ccc(F)cc2F)c1 [Compound 232]
LC50 HF [1]: > 100 µg | LC50 CL [2]: 0.004% | LC50 TBW E [3]: > 0.1%

CCOC(=O)c1ccc(N=C(OCc2cccc(Oc3ccccc3)c2)C(C)C)cc1Cl [Compound 104]
LC50 HF [1]: > 100 µg | LC50 CL [2]: 0.004% | LC50 TBW E [3]: > 0.1%

CCCCc1ccc(N=C(OCc2cccc(Oc3ccccc3)c2)C(C)C)cc1 [Compound 152]
LC50 HF [1]: > 100 µg | LC50 CL [2]: 0.009% | LC50 TBW E [3]: > 0.1%

COC(C)C(=Nc1ccc(Cl)cc1)OCc1cccc(Oc2ccccc2)c1 (stereo not drawn) [Compound 22]
LC50 HF [1]: 15 µg | LC50 CL [2]: 0.004% | LC50 TBW E [3]: 0.08%

CC(C)C(=Nc1ccc(F)cc1)OCc1cccc(Oc2ccc(F)cc2F)c1 [Compound 206]
LC50 HF [1]: 50 µg | LC50 CL [2]: 0.0017% | LC50 TBW E [3]: > 0.1%

CCC(CC)C(=Nc1ccc(C(C)C)cc1)OCc1cccc(Oc2ccccc2)c1 [Compound 321]
LC50 HF [1]: > 100 µg | LC50 CL [2]: 0.05% | LC50 TBW E [3]: > 0.1%

CC(C)C(=Nc1cc(Cl)c(Cl)cc1Cl)OCc1cccc(Oc2ccccc2)c1 [Compound 18]
LC50 HF [1]: > 100 µg | LC50 CL [2]: 0.008% | LC50 TBW E [3]: 0.09%

COc1ccc(Oc2cccc(COC(=Nc3ccc(F)cc3)C(C)C)c2)cc1 [Compound 220]
LC50 HF [1]: 85 µg | LC50 CL [2]: 0.007% | LC50 TBW E [3]: > 0.1%

CC(C)C(=Nc1ccc(C#N)cc1)OCc1cccc(Oc2ccc(F)cc2)c1 [Compound 227]
LC50 HF [1]: 10 µg | LC50 CL [2]: 0.0015% | LC50 TBW E [3]: 0.1%

COc1ccc(N=C(OCc2cccc(Oc3ccccc3)c2)C(C)C)c(C)c1 [Compound 149]
LC50 HF [1]: 17 µg | LC50 CL [2]: 0.007% | LC50 TBW E [3]: 0.05%

CC(C)C(=Nc1ccc2c(c1)OCO2)OCc1cccc(Oc2ccccc2F)c1 [Compound 183]
LC50 HF [1]: 10 µg | LC50 CL [2]: 0.00075% | LC50 TBW E [3]: 0.075%

COc1ccc(Oc2cccc(COC(=Nc3ccc(Cl)c(Cl)c3)C(C)C)c2)cc1 [Compound 223]
LC50 HF [1]: 43 µg | LC50 CL [2]: 0.008% | LC50 TBW E [3]: > 0.1%

CC(C)C(=Nc1cc(F)ccc1F)OCc1cccc(Oc2ccccc2)c1 [Compound 56]
LC50 HF [1]: 91 µg | LC50 CL [2]: 0.01% | LC50 TBW E [3]: > 0.05%

CC(C)C(=Nc1ccc(F)c(Cl)c1)OCc1cccc(OCc2ccccc2)c1 [Compound 472]
LC50 HF [1]: > 100 µg | LC50 CL [2]: 0.0025% | LC50 TBW E [3]: > 0.1%

CC(C)C(=Nc1ccc(Cl)c(Cl)c1)OCc1cccc(Oc2ccc(F)cc2F)c1 [Compound 213]
LC50 HF [1]: > 100 µg | LC50 CL [2]: 0.00075% | LC50 TBW E [3]: > 0.1%

CCCC(=Nc1ccc(Cl)c(Cl)c1)OCc1cccc(Oc2ccccc2)c1 [Compound 38]
LC50 HF [1]: 33 µg | LC50 CL [2]: 0.006% | LC50 TBW E [3]: 0.05%

CC(C)C(=Nc1ccc2c(c1)OCO2)OCc1cccc(Oc2ccccc2F)c1 [Compound 190]
LC50 HF [1]: 7.5 µg | LC50 CL [2]: 0.0004% | LC50 TBW E [3]: 0.023%

CC(C)C(=Nc1ccc(C(F)(F)F)cc1)OCc1ccc(F)c(Oc2ccc(F)cc2)c1 [Compound 287]
LC50 HF [1]: > 100 µg | LC50 CL [2]: 0.0025% | LC50 TBW E [3]: > 0.1%

Cc1cc(N=C(OCc2cccc(Oc3ccccc3)c2)C(C)C)ccc1Br [Compound 127]
LC50 HF [1]: 58 µg | LC50 CL [2]: 0.01% | LC50 TBW E [3]: 0.04%

CCC(CC)C(=Nc1cccc(C(F)(F)F)c1)OCc1cccc(Oc2ccc(F)cc2)c1 [Compound 291]
LC50 HF [1]: > 100 µg | LC50 CL [2]: 0.004% | LC50 TBW E [3]: > 0.1%

CCC(=Nc1ccc(F)c(Cl)c1)OCc1cccc(Oc2ccc(F)cc2)c1 [Compound 115]
LC50 HF [1]: 10 µg | LC50 CL [2]: 0.0012% | LC50 TBW E [3]: 0.075%

COc1ccc(Oc2cccc(COC(=Nc3ccc(F)c(Cl)c3)C(C)C)c2)cc1 [Compound 221]
LC50 HF [1]: 62 µg | LC50 CL [2]: 0.0027% | LC50 TBW E [3]: > 0.1%

CC(C)(Cl)C(=Nc1ccc(F)c(Cl)c1)OCc1cccc(Oc2ccc(F)cc2)c1 [Compound 224]
LC50 HF [1]: > 100 µg | LC50 CL [2]: 0.001% | LC50 TBW E [3]: > 0.1%

Cc1ccc(Oc2cccc(COC(=Nc3ccc(F)cc3)C(C)C)c2)cc1 [Compound 231]
LC50 HF [1]: > 100 µg | LC50 CL [2]: 0.003% | LC50 TBW E [3]: > 0.1%

CCC(=Nc1ccc(CC)cc1)OCc1cccc(Oc2ccccc2)c1 [Compound 157]
LC50 HF [1]: 25 µg | LC50 CL [2]: 0.009% | LC50 TBW E [3]: > 0.1%
